From patent US20230390274A1 (EPIRIUM BIO INC., priority 2020, published 2023)

molecular target: 15-PGDH/HPGD (Homo sapiens (Human), UniProt P15428); experiment: hPGDH inhibitor screening biochemical assay; details: 10 nM 15-PGDH/HPGD, 15 μM PGE2, 0.25 mM NAD; read-out: hPGDH: Average IC50
Description: A hydroxyprostaglandin dehydrogenase inhibition screening biochemical assay can be performed to assess the synthesized inhibitors provided herein. Provided herein is an exemplary biochemical assay for hPGDH inhibitor screening.
The in vitro biochemical assay can be performed in white, 384 plates in total 20 μl reaction volume consisting of 10 nM of 15-PGDH/HPGD (R&D System #5660-DH), 15 μM Prostaglandin E2 (Sigma, Cat #P5640-10MG) and 0.25 mM β-Nicotinamide adenine dinucleotide sodium salt (Sigma, Cat #N0632-5G) made in reaction buffer (50 mM Tris-HCl, pH 7.5, 0.01% Tween 20) at 10-point dose response curve for test/tool compounds. Briefly, 5 μl (4×) of compounds solution and 5 μl (final concentration, 10 nM) of enzyme solution is added to white 384 well plates and incubated for 10 mins at 37° C. 5 μl (4×) of Prostaglandin E2 and 5 μl (4×) of β-Nicotinamide adenine dinucleotide sodium salt is added to the wells and incubated for 10 mins at rt. Fluorescence is recorded at ex/em=340 nm/485 nm. The percentage (%) inhibition of enzyme activity was determined relative to […] (1% DMSO) and IC50 was calculated using GraphPad prism software (four parameter-variable slope equation).

15-PGDH/HPGD, sequence (P15428 whole entry): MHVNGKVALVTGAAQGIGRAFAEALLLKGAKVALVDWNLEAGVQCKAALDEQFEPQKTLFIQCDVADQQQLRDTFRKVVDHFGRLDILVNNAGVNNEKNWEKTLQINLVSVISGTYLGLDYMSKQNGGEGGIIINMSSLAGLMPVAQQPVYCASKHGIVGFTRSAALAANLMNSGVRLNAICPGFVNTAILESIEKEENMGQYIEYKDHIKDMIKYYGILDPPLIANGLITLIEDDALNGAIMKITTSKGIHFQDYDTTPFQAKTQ

Row | SMILES | IC50 [nM]
1 | Cc1c(C(=O)N2CCC(F)CC2)cnc2c1ccn2-c1cnccn1 [A-97, (4-fluoropiperidin-1-yl)(4-methyl-1-(pyrazin-2-yl)-1H-pyrrolo[2,3-b]pyridin-5-yl)methanone] | < 100
2 | CS(=O)(=O)n1ccc2cc(C(=O)N3CCCCC3)cnc21 [A-110, (1-(methylsulfonyl)-1H-pyrrolo[2,3-b]pyridin-5-yl)(piperidin-1-yl)methanone] | ≥ 1000
3 | Cc1ccc(S(=O)(=O)n2ccc3cc(C(=O)N4CCCCC4)cnc32)cc1 [A-111, piperidin-1-yl(1-tosyl-1H-pyrrolo[2,3-b]pyridin-5-yl)methanone] | ≥ 1000
4 | O=C(c1cnc2c(ccn2-c2ccn3ccnc3c2)c1)N1CCCCC1 [A-112] | < 100
5 | Cc1cncc(-n2ccc3cc(C(=O)N4CCCCC4)cnc32)c1 [A-113] | < 100
6 | N#Cc1ccc(-n2ccc3cc(C(=O)N4CCC(F)CC4)cnc32)cc1 [A-114] | < 100
7 | N#Cc1cccc(-n2ccc3cc(C(=O)N4CCC(F)CC4)cnc32)c1 [A-115] | < 100
8 | CN(C)c1ccc(-n2ccc3cc(C(=O)N4CCCCC4)cnc32)cn1 [A-116] | < 100
9 | N#Cc1ccc(-n2ccc3cc(C(=O)N4CCCCC4)cnc32)cn1 [A-117] | < 100
10 | N#Cc1ncc(-n2ccc3cc(C(=O)N4CCCCC4)cnc32)cn1 [A-118] | < 100
11 | O=C(c1cnc2c(ccn2-c2ccc3[nH]ncc3c2)c1)N1CCCCC1 [A-119, (1-(1H-indazol-5-yl)-1H-pyrrolo[2,3-b]pyridin-5-yl)(piperidin-1-yl)methanone] | < 100
12 | COc1ccc(Cn2ncc3cc(-n4ccc5cc(C(=O)N6CCCCC6)cnc54)ccc32)cc1 [A-120] | < 100
13 | COc1ccc(Cn2cc3cc(-n4ccc5cc(C(=O)N6CCCCC6)cnc54)ccc3n2)cc1 [A-121] | < 100
14 | NC(=O)c1ccc(-n2ccc3cc(C(=O)N4CCC(F)CC4)cnc32)cc1 [A-122] | < 100
15 | NC(=O)c1cccc(-n2ccc3cc(C(=O)N4CCC(F)CC4)cnc32)c1 [A-123] | < 100
16 | NC(=O)c1ccc(-n2ccc3cc(C(=O)N4CCCCC4)cnc32)cn1 [A-124] | < 100
17 | NC(=O)c1ncc(-n2ccc3cc(C(=O)N4CCCCC4)cnc32)cn1 [A-125] | < 100
18 | NC(=O)c1ccc(-n2ccc3cc(C(=O)N4CCC(F)(F)CC4)cnc32)cc1 [A-126] | < 100
19 | O=C(c1cnc2c(ccn2-c2ccc(CO)cc2)c1)N1CCC(F)CC1 [A-127] | < 100
20 | O=C(c1cnc2c(ccn2-c2cccc(CO)c2)c1)N1CCC(F)CC1 [A-128] | < 100
21 | CC(C)(O)c1ccc(-n2ccc3cc(C(=O)N4CCCCC4)cnc32)cc1 [A-130] | < 100
22 | COc1ccc(-n2ccc3cc(C(=O)N4CCC(c5ccccc5)CC4)cnc32)cc1 [A-134] | ≥ 1000

Row | SMILES | IC50 [nM]
23 | COc1ccc(-n2ccc3cc(C(=O)N4CC(c5ccccc5)C4)cnc32)cc1 [A-135] | ≥ 1000
24 | COc1ccc(-n2ccc3cc(C(=O)N4CCN(CC(F)(F)F)CC4)cnc32)cc1 [A-136] | ≥ 1000
25 | COc1ccc(-n2ccc3cc(C(=O)N4C[C@H](C)C[C@H](C)C4)cnc32)cc1 [A-138, ((3R,5S)-3,5-dimethylpiperidin-1-yl)(1-(4-methoxyphenyl)-1H-pyrrolo[2,3-b]pyridin-5-yl)methanone] | < 100
26 | COCCNC(=O)c1ccc(-n2ccc3cc(C(=O)N4CCCCC4)cnc32)cc1 [A-139] | < 100
27 | CNC(=O)c1ccc(-n2ccc3cc(C(=O)N4CCCCC4)cnc32)cc1 [A-140] | < 100
28 | CN(C)C(=O)c1ccc(-n2ccc3cc(C(=O)N4CCCCC4)cnc32)cc1 [A-141] | < 100
29 | COc1ccc(-n2ccc3cc(C(=O)N4CCC(F)CC4)cnc32)cc1 [A-142] | < 100
30 | COc1cccc(-n2ccc3cc(C(=O)N4CCCCC4)cnc32)c1 [A-143] | < 100
31 | O=C(c1cnc2c(ccn2-c2cncc(Cl)c2)c1)N1CCCCC1 [A-144] | < 100
32 | COc1cncc(-n2ccc3cc(C(=O)N4CCCCC4)cnc32)c1 [A-145] | < 100
33 | COc1ccc(-n2ccc3cc(C(=O)N4CCCCC4)cnc32)cc1 [A-146] | < 100
34 | N#Cc1ccc(-n2ccc3cc(C(=O)N4CCCCC4)cnc32)cc1 [A-147] | < 100
35 | N#Cc1cccc(-n2ccc3cc(C(=O)N4CCCCC4)cnc32)c1 [A-148] | < 100
36 | CN(C)c1cccc(-n2ccc3cc(C(=O)N4CCCCC4)cnc32)c1 [A-149] | < 100
37 | CN(C)c1ccc(-n2ccc3cc(C(=O)N4CCCCC4)cnc32)cc1 [A-150] | < 100
38 | CCOc1ccc(-n2ccc3cc(C(=O)N4CCCCC4)cnc32)cc1 [A-151] | < 100
39 | CS(=O)(=O)c1cccc(-n2ccc3cc(C(=O)N4CCCCC4)cnc32)c1 [A-152] | < 100
40 | CS(=O)(=O)c1ccc(-n2ccc3cc(C(=O)N4CCCCC4)cnc32)cc1 [A-153] | < 100
41 | Nc1cc(-n2ccc3cc(C(=O)N4CCCCC4)cnc32)ccn1 [A-154] | < 100
42 | O=C(c1cnc2c(ccn2-c2ccc(O)nc2)c1)N1CCCCC1 [A-155] | < 100
43 | Nc1cncc(-n2ccc3cc(C(=O)N4CCCCC4)cnc32)c1 [A-156] | < 100
44 | COc1ccc(-n2ccc3cc(C(=O)N4CCCCC4)cnc32)cn1 [A-157] | < 100

Row | SMILES | IC50 [nM]
45 | Nc1ccc(-n2ccc3cc(C(=O)N4CCCCC4)cnc32)cn1 [A-158] | < 100
46 | NC(=O)c1ccc(-n2ccc3cc(C(=O)N4CCCCC4)cnc32)cc1 [A-159] | < 100
47 | NC(=O)c1cccc(-n2ccc3cc(C(=O)N4CCCCC4)cnc32)c1 [A-160] | < 100
48 | NCc1ccc(-n2ccc3cc(C(=O)N4CCCCC4)cnc32)cc1 [A-162] | < 100
49 | O=C(c1cnc2c(ccn2-c2ccc(CO)cc2)c1)N1CCCCC1 [A-163] | < 100
50 | O=C(c1cnc2c(ccn2-c2cccc(CO)c2)c1)N1CCCCC1 [A-164] | < 100
51 | COc1ccc(-n2cc(Cl)c3cc(C(=O)N4CCC(F)CC4)cnc32)cc1 [A-165, (3-chloro-1-(4-methoxyphenyl)-1H-pyrrolo[2,3-b]pyridin-5-yl)(4-fluoropiperidin-1-yl)methanone] | < 100
52 | COc1ccc(-n2cc(Cl)c3cc(C(=O)N4CCCCC4)cnc32)cc1 [A-166] | < 100
53 | O=C(c1cnc2c(c1)c(Cl)cn2-c1ccc2c(c1)OC(F)(F)O2)N1CCC(F)CC1 [A-167] | < 100
54 | O=C(c1cnc2c(c1)c(Cl)cn2-c1ccc2c(c1)OC(F)(F)O2)N1CCCCC1 [A-168] | < 100
55 | COc1cccc(-n2cc(Cl)c3cc(C(=O)N4CCCCC4)cnc32)c1 [A-169] | < 100
56 | O=C(c1cnc2c(c1)c(Cl)cn2-c1cncc(Cl)c1)N1CCCCC1 [A-170] | < 100
57 | COc1cncc(-n2cc(Cl)c3cc(C(=O)N4CCCCC4)cnc32)c1 [A-171] | < 100
58 | O=C(c1cnc2c(ccn2-c2cnccn2)c1Cl)N1CCC(F)CC1 [A-172] | < 100
59 | O=C(c1cnc2c(c(Cl)cn2-c2cnccn2)c1Cl)N1CCC(F)CC1 [A-173] | < 100
60 | Cc1nc2c(ccn2-c2cnccn2)cc1C(=O)N1CCC(F)CC1 [A-174] | ≥ 1000
61 | Cc1nc2c(cc1C(=O)N1CCC(F)CC1)c(Cl)cn2-c1cnccn1 [A-175] | ≥ 1000
62 | CCC(CC)n1cnc2cc(C(=O)N3CCC(F)CC3)cnc21 [A-176] | ≥ 1000
63 | O=C(c1cnc2c(c1)ncn2-c1ccc(F)cc1)N1CCCCC1 [A-178] | < 100
64 | O=C(c1cnc2c(c1)ncn2-c1ccc(F)c(F)c1)N1CCCCC1 [A-180] | < 100
